According to ChEMBL document CHEMBL6182918, “Developing Dual-State Emission Berberine Derivatives as Theranostic Agents by Reducing Nonradiative Transition Pathways” (J Med Chem, 2025):
Activity calls are given as the source filed them. The calls are words filed in the database; no cut-off is given here.

Legend:
[1] = Stability of the compound in the solution assessed as fluorescence intensity measured after 28 mins of light exposure by fluorescence based analysis; type: physicochemical; details: read-out: Stability
[2] = test system: Staphylococcus aureus; assay: Antibacterial activity against Staphylococcus aureus ATCC 25923 assessed as reduction in colony forming units at 50 ug/ml preincubated for 5 to 20 mins in PBS followed by culturing on LB agar plate for 18 hrs by plate-count method; type: functional, organism-based; details: dose 50.0 µg/ml, time 1085-1100 min
[3] = test system: Staphylococcus aureus; assay: Photodynamic antibacterial activity against Staphylococcus aureus ATCC 25923 assessed as log reduction in colony forming units at 50 ug/ml preincubated for 5 mins in PBS followed by light irradiation for 20 mins and later cultured on LB agar plate for 18 hrs by plate-count method; type: functional; details: dose 50 µg/ml; time 1105 min; 18.42 h
[4] = test system: Staphylococcus aureus; assay: Antibacterial activity against Staphylococcus aureus ATCC 29213 assessed as inhibition of bacterial growth by CLSI based broth microdilution method; type: functional, organism-based
[5] = test system: Staphylococcus aureus; assay: Antibacterial activity against Staphylococcus aureus ATCC 25923 assessed as viable cells with tiny amount of PI emission at 10 ug/ml measured under dark conditions by PI co-staining based fluorescence analysis; type: functional, organism-based; details: dose 10.0 µg/ml
[6] = test system: Staphylococcus aureus; assay: Photodynamic antibacterial activity against Staphylococcus aureus ATCC 43300 assessed as reduction in colony forming units at 50 to 100 ug/ml preincubated for 5 mins in PBS followed by light irradiation for 20 mins and later cultured on LB agar plate for 18 hrs by plate-count method; type: functional, organism-based; details: dose 50-100 µg/ml, time 1105.0 min
[7] = test system: Cell membrane; assay: Binding affinity to cell membrane in Staphylococcus aureus assessed as membrane potential collapse at 25 to 100 ug/ml by measuring increase in fluorescence intensity measured under dark conditions by Rhodamine123 staining based fluorescence analysis; type: subcellular; details: dose 25-100 µg/ml
[8] = Drug uptake in Escherichia coli EHEC measured after washing by absorbance based analysis; type: ADME
[9] = test system: Escherichia coli; assay: Antibacterial activity against Escherichia coli assessed as inhibition of bacterial growth by CLSI based broth microdilution method; type: functional, organism-based
[10] = test system: Staphylococcus aureus; assay: Photodynamic antibacterial activity against Staphylococcus aureus ATCC 700699 assessed as reduction in colony forming units at 50 to 100 ug/ml preincubated for 5 mins in PBS followed by light irradiation for 20 mins and later cultured on LB agar plate for 18 hrs by plate-count method; type: functional, organism-based; details: dose 50-100 µg/ml, time 1105.0 min
[11] = test system: Staphylococcus aureus; assay: Photodynamic antibacterial activity against Staphylococcus aureus infected in mouse assessed as reduction in bacterial count in wounds at 50 ug/ml pretreated with compound followed by LED light irradiation for 30 mins and on day 5 the infected tissue harvested and cultured on LB agar plate and measured after 24 hrs by plate count method; type: functional, organism-based; details: dose 50.0 µg/ml, time 6.0 day
[12] = test system: Cell membrane; assay: Binding affinity to cell membrane in Staphylococcus aureus assessed as membrane potential collapse at 25 to 50 ug/ml by measuring increase in fluorescence intensity measured after light irradiation by Rhodamine123 staining based fluorescence analysis; type: subcellular; details: dose 25-50 µg/ml
[13] = test system: Staphylococcus aureus; assay: Photodynamic antibacterial activity against Staphylococcus aureus ATCC 29213 assessed as reduction in colony forming units at 50 ug/ml preincubated for 5 mins in PBS followed by light irradiation for 20 mins and later cultured on LB agar plate for 18 hrs by plate-count method; type: functional, organism-based; details: dose 50.0 µg/ml, time 1105.0 min
[14] = Induction of ROS generation in aqueous solution assessed as singlet oxygen generation (1O2) at 10 ug/ml pretreated with compound followed by light irradiation for 28 mins by fluorescence based analysis; type: functional; details: dose 10.0 µg/ml
[15] = test system: Staphylococcus aureus; assay: Photodynamic antibacterial activity against Staphylococcus aureus ATCC 43300 assessed as reduction in colony forming units at 50 ug/ml preincubated for 5 mins in PBS followed by light irradiation for 20 mins and later cultured on LB agar plate for 18 hrs by plate-count method; type: functional, organism-based; details: dose 50.0 µg/ml, time 1105.0 min
[16] = test system: Staphylococcus aureus; assay: Photodynamic antibacterial activity against Staphylococcus aureus ATCC 29213 assessed as reduction in colony forming units at 50 to 100 ug/ml preincubated for 5 mins in PBS followed by light irradiation for 20 mins and later cultured on LB agar plate for 18 hrs by plate-count method; type: functional, organism-based; details: dose 50-100 µg/ml, time 1105.0 min
[17] = test system: Cell membrane; assay: Disruption of inner cell membrane in Staphylococcus aureus assessed as increase in cell permeability by measuring increase in PI fluorescence intensity at 12.5 to 50 ug/ml measured after light irradiation by PI based fluorescence based analysis; type: subcellular; details: dose 12.5-50 µg/ml
[18] = test system: DNA; assay: Binding affinity to Staphylococcus aureus DNA assessed as induction of genomic DNA degradation measured after 20 mins of light irradiation by absorbance based analysis; type: nucleic-acid assay; details: dose 12.5-100 µg/ml
[19] = Induction of ROS generation in aqueous solution assessed as hydroxyl radical generation (.OH) at 10 ug/ml pretreated with compound followed by light irradiation for 28 mins by fluorescence based analysis; type: functional; details: dose 10.0 µg/ml
[20] = test system: Staphylococcus aureus; assay: Photodynamic antibacterial activity against Staphylococcus aureus ATCC 25923 assessed as reduction in colony forming units at 50 to 100 ug/ml preincubated for 5 mins in PBS followed by light irradiation for 20 mins and later cultured on LB agar plate for 18 hrs by plate-count method; type: functional, organism-based; details: dose 50-100 µg/ml, time 1105.0 min
[21] = test system: Staphylococcus aureus; assay: Antibacterial activity against Staphylococcus aureus assessed as inhibition of bacterial growth by CLSI based broth microdilution method; type: functional
[22] = test system: Staphylococcus aureus; assay: Photodynamic antibacterial activity against Staphylococcus aureus ATCC 25923 assessed as reduction in bacterial cell viability by measuring increase in PI-stained cells at 10 ug/ml preincubated for 5 mins in PBS followed by light irradiation for 20 mins by PI co-staining based fluorescence analysis; type: functional, organism-based; details: dose 10.0 µg/ml, time 25.0 min
[23] = Drug uptake in Staphylococcus aureus ATCC 25923 measured after washing by absorbance based analysis; type: ADME
[24] = Drug uptake in Staphylococcus aureus assessed as increase in bacterial imaging at 10 ug/ml by laser scanning confocal microscopic analysis; type: ADME; details: dose 10 µg/ml
[25] = test system: Staphylococcus aureus; assay: Photodynamic antibacterial activity against Staphylococcus aureus ATCC 25923 assessed as reduction in colony forming units at 50 ug/ml preincubated for 5 mins in PBS followed by light irradiation for 5 to 20 mins and later cultured on LB agar plate for 18 hrs by plate-count method; type: functional, organism-based; details: dose 50.0 µg/ml, time 1090-1105 min
[26] = Aqueous solubility of the compound relative to berberine; type: physicochemical; details: buffer
[27] = test system: Staphylococcus aureus; assay: Photodynamic antibacterial activity against Staphylococcus aureus infected in mouse assessed as reduction in pyosis in wounds at 50 ug/ml pretreated with compound followed by LED light irradiation for 30 mins and measured on day 1; type: functional, organism-based; details: dose 50.0 µg/ml, time 1.0 day
[28] = test system: Staphylococcus aureus; assay: Photodynamic antibacterial activity against Staphylococcus aureus ATCC 700699 assessed as reduction in colony forming units at 50 ug/ml preincubated for 5 mins in PBS followed by light irradiation for 20 mins and later cultured on LB agar plate for 18 hrs by plate-count method; type: functional, organism-based; details: dose 50.0 µg/ml, time 1105.0 min
[29] = Drug uptake in Escherichia coli assessed as increase in bacterial imaging at 10 ug/ml by laser scanning confocal microscopic analysis; type: ADME; details: dose 10 µg/ml
[30] = test system: Staphylococcus aureus; assay: Photodynamic antibacterial activity against Staphylococcus aureus infected in mouse assessed as reduction in pyosis in wounds at 50 ug/ml pretreated with compound followed by LED light irradiation for 30 mins and measured on day 3; type: functional, organism-based; details: dose 50.0 µg/ml, time 3.0 day
[31] = test system: DNA; assay: Binding affinity to Staphylococcus aureus DNA assessed as change in absorbance spectrum by absorbance based analysis; type: nucleic-acid assay
[32] = test system: Escherichia coli; assay: Photodynamic antibacterial activity against Escherichia coli EHEC assessed as reduction in colony forming units at 50 ug/ml preincubated for 5 mins in PBS followed by light irradiation for 20 mins and later cultured on LB agar plate for 18 hrs by plate-count method; type: functional, organism-based; details: dose 50.0 µg/ml, time 1105.0 min
[33] = test system: Staphylococcus aureus; assay: Photodynamic antibacterial activity against Staphylococcus aureus infected in mouse assessed as reduction in pyosis in wounds at 50 ug/ml pretreated with compound followed by LED light irradiation for 30 mins and measured on day 5; type: functional, organism-based; details: dose 50.0 µg/ml, time 5.0 day
[34] = test system: Escherichia coli; assay: Photodynamic antibacterial activity against Escherichia coli EPEC assessed as reduction in colony forming units at 50 ug/ml preincubated for 5 mins in PBS followed by light irradiation for 20 mins and later cultured on LB agar plate for 18 hrs by plate-count method; type: functional, organism-based; details: dose 50.0 µg/ml, time 1105.0 min
[35] = Drug uptake in Staphylococcus aureus ATCC 43300 measured after washing by absorbance based analysis; type: ADME
[36] = test system: Staphylococcus aureus; assay: Photodynamic bactericidal activity against Staphylococcus aureus assessed as appearance of broken and shrunk bacterial cells at 50 ug/ml pretreated for 5 mins followed by light irradiation for 20 mins SEM analysis; type: functional, organism-based; details: dose 50.0 µg/ml, time 25.0 min
[37] = test system: Cell membrane; assay: Disruption of cell membrane in Staphylococcus aureus assessed as increase in membrane depolarization by measuring increase in fluorescence intensity measured after light irradiation by DiBAC4(3) based fluorescence analysis; type: subcellular; details: dose 25-100 µg/ml
[38] = test system: Staphylococcus aureus; assay: Antibacterial activity against Staphylococcus aureus infected in mouse assessed as reduction in pyosis in wounds at 50 ug/ml measured on day 1; type: functional, organism-based; details: dose 50.0 µg/ml, time 1.0 day
[39] = test system: Staphylococcus aureus; assay: Photodynamic antibacterial activity against Staphylococcus aureus infected in mouse assessed as reduction in neutrophils content in wounds at 50 ug/ml and measured on day 3 by Hematoxylin-Eosin staining based analysis; type: functional, organism-based; details: dose 50.0 µg/ml, time 3.0 day

CCCCN1C(=O)C(=C/C=C/C2C(=O)N(CCCC)C(=O)N(CCCC)C2=O)C(=O)N(CCCC)C1=O gave a remaining at 28 min [1] of 40%.
In the case of COc1cccc2cc3[n+](cc12)CCc1cc2c(cc1-3)OCO2.[Cl-], the Activity [2] is reported as “inactive”, the Activity [3] is reported as 4 log10CFU/ml and the Activity [4] is reported as “Active”.
For COc1ccc2c(c1)CC[n+]1cc3c(OC)cccc3cc1-2.[Cl-], the Activity [5] was “inactive”, the Activity [6] was “Dose-dependent-effect” and the Activity [7] was “Active”. For the same compound, the Drug uptake [8] was “Not_active”, the Activity [9] was “Active; Activity Against Escherichia Coli Is Lower Than Staphylococcus Aureus” and the Activity [10] was “Dose-dependent-effect”. For the same compound, the Activity [11] was “Active”, the Activity [12] was “Active” and the Activity [13] was “Active; Higher Activity Compared To Bbr And Mb But Lower Activity Compared To Ce6”. For the same compound, the Activity [14] was “Active”, the Activity [15] was “Active; Higher Activity Compared To Bbr And Mb But Lower Activity Compared To Ce6” and the Activity [16] was “Dose-dependent-effect”. The Activity [17] was “Dose-dependent-effect”, the remaining at 28 min [1] was ~90% and the Activity [18] was “Dose-dependent-effect”. The Activity [2] was “inactive”, the Activity [19] was “Active” and the Activity [20] was “Dose-dependent-effect”. For the same compound, the MIC [21] was 50 µg/mL, the Activity [22] was “Active” and the Drug uptake [23] was “Active”. For the same compound, the Drug uptake [24] was “Active”, the Activity [25] was “Time-dependent-effect” and the Activity [3] was ~5 log10CFU/ml. For the same compound, the “fold change (FC)” value [26] was ~ 10, the Activity [27] was “Active” and the Activity [28] was “Active; Higher Activity Compared To Bbr And Mb But Lower Activity Compared To Ce6”. For the same compound, the Drug uptake [29] was “Active”, the Activity [30] was “Active; Pyosis Nearly Disappeared” and the Activity [31] was “Active”. The Activity [32] was “inactive”, the Activity [33] was “Active; Favourable Wound Healing Status Observed” and the Activity [34] was “Active”. The Drug uptake [35] was “Not_active”, the Activity [36] was “Active” and the Activity [37] was “Dose-dependent-effect”.
In the case of COc1ccc2c(c1)CC[n+]1cc3ccccc3cc1-2, the Activity [14] is reported as “inactive” and the Activity [19] is reported as “inactive”.
For COc1ccc2c(c1)CC[n+]1cc3c4c(ccc3cc1-2)OCO4, the Activity [14] was “inactive” and the Activity [19] was “inactive”.
For COc1ccc2cc3[n+](cc2c1OC)CCc1cc2c(cc1-3)OCO2.[Cl-] [BERBERINE CHLORIDE], the Activity [11] was “Active”, the remaining at 28 min [1] was 60% and the Activity [3] was 2 log10CFU/ml. The Activity [38] was “inactive”, the Activity [27] was “inactive” and the Activity [39] was “inactive”.
With COc1ccc2c(c1)CC[n+]1cc3cc4c(cc3cc1-2)OCO4 the Activity [14] was “Active” and the Activity [19] was “Active”.
With COc1ccc2c(c1)CC[n+]1cc3cc(OC)ccc3cc1-2.[Cl-] the Activity [9] was “Active; Activity Against Escherichia Coli Is Lower Than Staphylococcus Aureus”, the Activity [14] was “Active” and the Activity [2] was “inactive”. For the same compound, the Activity [19] was “Active”, the Activity [21] was “Active” and the Activity [25] was “Time-dependent-effect”. For the same compound, the Activity [3] was 4.5 log10CFU/ml, the “fold change (FC)” value [26] was ~ 10 and the Activity [32] was “inactive”.
